Assay results reported in patent publication US20230172206A1 (BASF SE, priority 2020, published 2023).

Legend:
[1] = tested on: Phakopsora pachyrhizi (F129L); experiment: Protective control of soybean rust on soybeans (PHAKPA P6); assay type: in vivo; conditions: for % PHAKPA (F129L) Disease level P6 at 4 ppm: protective P6, 4 ppm; for % PHAKPA (F129L) Disease level P6 at 16 ppm: protective P6, 16 ppm
[2] = tested on: Phakopsora pachyrhizi (F129L); experiment: Protective control of soybean rust on soybeans (PHAKPA P2); assay type: in vivo; conditions: for % PHAKPA (F129L) Disease level P2 at 4 ppm: protective P2, 4 ppm; for % PHAKPA (F129L) Disease level P2 at 16 ppm: protective P2, 16 ppm

Row | SMILES | % PHAKPA (F129L) Disease level P6 at 4 ppm ([1]; soybean rust F129L isolate) [%] | % PHAKPA (F129L) Disease level P6 at 16 ppm ([1]; soybean rust F129L isolate) [%] | % PHAKPA (F129L) Disease level P2 at 4 ppm ([2]; soybean rust F129L isolate) [%] | % PHAKPA (F129L) Disease level P2 at 16 ppm ([2]; soybean rust F129L isolate) [%] | % PHAKPA (F129L) Disease level P6 at 4 ppm ([1]; F129L isolate) [%] | % PHAKPA (F129L) Disease level P6 at 16 ppm ([1]; F129L isolate) [%] | % PHAKPA (F129L) Disease level P2 at 4 ppm ([2]; F129L isolate) [%] | % PHAKPA (F129L) Disease level P2 at 16 ppm ([2]; F129L isolate) [%] | PHAKPA (F129L) Disease level (%) P6 at 4 ppm ([1]; protective, inoculation six days after spraying, 4 ppm, % diseased leaf area) [%] | PHAKPA (F129L) Disease level (%) P2 at 4 ppm ([2]; protective, inoculation 2 days after spraying, 4 ppm, % diseased leaf area) [%]
1 | CO/N=C(/C(=O)OC)c1cccc(C)c1CO/N=C(\C)c1cc(Cl)ccc1C(F)(F)F [compound 251] | 80 | 80 | 80 | 80 | – | – | – | – | – | –
2 | CNC(=O)/C(=N/OC)c1cccc(C)c1CO/N=C(\C)c1ccc(Cl)cc1OC(F)(F)F [compound 375] | 40 | 6 | 47 | 8 | – | – | – | – | – | –
3 | CNC(=O)/C(=N/OC)c1cccc(C)c1CO/N=C(\C)c1cc(Br)cc(F)c1F [compound 241] | 33 | 12 | 3 | 0 | – | – | – | – | – | –
4 | CNC(=O)/C(=N/OC)c1cccc(C)c1CO/N=C(\C)c1ccccc1C1(C)CC1 [compound 296] | 100 | 83 | 100 | 40 | – | – | – | – | – | –
5 | CNC(=O)/C(=N/OC)c1cccc(C)c1CO/N=C(\C)c1cc(Cl)c(F)c(Cl)c1 [compound 247] | 33 | 8 | 16 | 2 | – | – | – | – | – | –
6 | CNC(=O)/C(=N/OC)c1cccc(C)c1CO/N=C(\C)c1ccc(OC(F)(F)F)cc1OC(F)(F)F [compound 349] | 97 | 35 | 97 | 50 | – | – | – | – | – | –
7 | CO/C=C(/C(=O)OC)c1cccc(C)c1CO/N=C(\C)c1ccc(-c2ccc(F)cc2)cc1C(F)(F)F [compound 432] | – | – | – | – | 13 | 3 | 12 | 0 | – | –
8 | CO/N=C(/C(=O)OC)c1cccc(C)c1CO/N=C(\C)c1cccc(Cl)c1C(F)(F)F [compound 421] | – | – | – | – | 87 | 57 | 100 | 33 | – | –
9 | CNC(=O)/C(=N/OC)c1cccc(C)c1CO/N=C(\C)c1ccc(/C(C)=N\OC)cc1C(F)(F)F [compound 420] | – | – | – | – | 12 | 1 | 8 | 0 | – | –
10 | CNC(=O)/C(=N/OC)c1cccc(C)c1CO/N=C(\C)c1c(Cl)ccc(F)c1OC(F)(F)F [compound 440] | – | – | – | – | 73 | 23 | 93 | 23 | – | –
11 | CO/C=C(/C(=O)OC)c1cccc(C)c1CO/N=C(\C)c1ccc(OC)cc1C(F)(F)F [compound 464] | – | – | – | – | 8 | 0 | 1 | 0 | – | –
12 | CO/N=C(/C(=O)OC)c1cccc(C)c1CO/N=C(\C)c1ccc(F)c(F)c1OC(F)(F)F [compound 447] | – | – | – | – | 33 | 1 | 7 | 0 | – | –
13 | CO/C=C(/C(=O)OC)c1cccc(C)c1CO/N=C(\C)c1cccc(C(F)(F)F)c1 [compound 231] | 2 | 0 | 0 | 0 | – | – | – | – | 2 | 0
14 | CNC(=O)/C(=N/OC)c1cccc(C)c1CO/N=C(\C)c1cc(C(F)(F)F)cc(F)c1NC [compound 238] | 100 | 77 | 100 | 53 | – | – | – | – | – | –
15 | CNC(=O)/C(=N/OC)c1cccc(C)c1CO/N=C(\CC(F)(F)F)c1ccccc1C [compound 393] | – | – | – | – | 93 | 42 | 93 | 55 | – | –
16 | CNC(=O)/C(=N/OC)c1cccc(C)c1CO/N=C(\C)c1ccc(OC)cc1C(F)(F)F [compound 324] | 12 | 0 | 2 | 1 | – | – | – | – | – | –
17 | CNC(=O)/C(=N/OC)c1cccc(C)c1CO/N=C(\C)c1cc(Cl)ccc1C(F)(F)F [compound 245] | 13 | 2 | 28 | 8 | – | – | – | – | – | –
18 | C#Cc1cc(F)ccc1/C(C)=N/OCc1c(C)cccc1/C(=N\OC)C(=O)NC [compound 286] | 97 | 27 | 67 | 15 | – | – | – | – | – | –

Row | SMILES | % PHAKPA (F129L) Disease level P6 at 4 ppm ([1]; soybean rust F129L isolate) [%] | % PHAKPA (F129L) Disease level P6 at 16 ppm ([1]; soybean rust F129L isolate) [%] | % PHAKPA (F129L) Disease level P2 at 4 ppm ([2]; soybean rust F129L isolate) [%] | % PHAKPA (F129L) Disease level P2 at 16 ppm ([2]; soybean rust F129L isolate) [%] | % PHAKPA (F129L) Disease level P6 at 4 ppm ([1]; F129L isolate) [%] | % PHAKPA (F129L) Disease level P6 at 16 ppm ([1]; F129L isolate) [%] | % PHAKPA (F129L) Disease level P2 at 4 ppm ([2]; F129L isolate) [%] | % PHAKPA (F129L) Disease level P2 at 16 ppm ([2]; F129L isolate) [%] | PHAKPA (F129L) Disease level (%) P6 at 4 ppm ([1]; protective, inoculation six days after spraying, 4 ppm, % diseased leaf area) [%] | PHAKPA (F129L) Disease level (%) P2 at 4 ppm ([2]; protective, inoculation 2 days after spraying, 4 ppm, % diseased leaf area) [%]
19 | CNC(=O)/C(=N/OC)c1cccc(C)c1CO/N=C(\C)c1ccc(-c2ccccc2)cc1C(F)(F)F [compound 413] | – | – | – | – | 33 | 15 | 40 | 15 | – | –
20 | CC/C(=N\OCc1c(C)cccc1/C(=N\OC)C(=O)NC)c1ccccc1 [compound 294] | 2 | 0 | 1 | 1 | – | – | – | – | – | –
21 | CO/C=C(/C(=O)OC)c1cccc(C)c1CO/N=C(\C)c1cc(F)c(F)cc1CC(F)(F)F [compound 405] | – | – | – | – | 70 | 27 | 97 | 27 | – | –
22 | CO/C=C(/C(=O)OC)c1cccc(C)c1CO/N=C(\C)c1ccc(Cl)c(Cl)c1C(F)(F)F [compound 430] | – | – | – | – | 37 | 17 | 22 | 6 | – | –
23 | CO/N=C(/C(=O)OC)c1cccc(C)c1CO/N=C(\C)c1c(F)cccc1C(F)(F)F [compound 365] | 97 | 43 | 77 | 15 | – | – | – | – | – | –
24 | CNC(=O)/C(=N/OC)c1cccc(C)c1CO/N=C(\C)c1c(Cl)cccc1C(F)(F)F [compound 290] | 83 | 21 | 92 | 14 | – | – | – | – | – | –
25 | CNC(=O)/C(=N/OC)c1cccc(C)c1CO/N=C(\C)c1ccccc1C1CC1(F)F (stereo not shown) [compound 288] | 97 | 20 | 87 | 30 | – | – | – | – | – | –
26 | CO/C=C(/C(=O)OC)c1cccc(C)c1CO/N=C(\C)c1ccc(-c2ccccc2)cc1OC(F)(F)F [compound 433] | – | – | – | – | 80 | 57 | 83 | 67 | – | –
27 | CNC(=O)/C(=N/OC)c1cccc(Br)c1CO/N=C(\C)c1ccccc1 [compound 396] | – | – | – | – | 4 | 0 | 3 | 0 | – | –
28 | CNC(=O)/C(=N/OC)c1cccc(C)c1CO/N=C(\C)c1ccc(F)cc1F [compound 267] | 10 | 4 | 2 | 0 | – | – | – | – | – | –
29 | CNC(=O)/C(=N/OC)c1cccc(C)c1CO/N=C(\C)c1cc(F)ccc1Br [compound 248] | 30 | 2 | 33 | 2 | – | – | – | – | – | –
30 | CNC(=O)/C(=N/OC)c1cccc(C)c1CO/N=C(\C)c1ccc(OC(F)(F)F)cc1C(F)(F)F [compound 363] | 25 | 2 | 29 | 1 | – | – | – | – | – | –
31 | CNC(=O)/C(=N/OC)c1cccc(C)c1CO/N=C(\C)c1c(Cl)ccc(Cl)c1OC(F)(F)F [compound 441] | – | – | – | – | 97 | 50 | 100 | 43 | – | –
32 | CNC(=O)/C(=N/OC)c1cccc(C)c1CO/N=C(\C)c1ccc(-c2ccc(F)cc2)cc1C(F)(F)F [compound 426] | – | – | – | – | 27 | 10 | 7 | 1 | – | –
33 | CNC(=O)/C(=N/OC)c1cccc(C)c1CO/N=C(\C)c1ccc(F)cc1C(F)(F)F [compound 260] | 22 | 0 | 22 | 0 | – | – | – | – | – | –
34 | CNC(=O)/C(=N/OC)c1cccc(C)c1CO/N=C(\C)c1c(F)cc(F)cc1C(F)(F)F [compound 357] | 18 | 0 | 13 | 1 | – | – | – | – | – | –
35 | CNC(=O)/C(=N/OC)c1cccc(C)c1CO/N=C(/c1ccccc1)C(C)C [compound 389] | – | – | – | – | 43 | 3 | 28 | 4 | – | –
